Laboratory results taken from patent US20040186081A1, “Naaladase inhibitors for treating opioid tolerance” (Guilford Pharmaceuticals Inc., priority 2003, published 2004).

Target: NAALADase (Homo sapiens, UniProt Q04609)
Assay: In vitro inhibition of NAALADase activity
Type: biochemical
Details: not given

Chain of NAALADase (Q04609 whole entry): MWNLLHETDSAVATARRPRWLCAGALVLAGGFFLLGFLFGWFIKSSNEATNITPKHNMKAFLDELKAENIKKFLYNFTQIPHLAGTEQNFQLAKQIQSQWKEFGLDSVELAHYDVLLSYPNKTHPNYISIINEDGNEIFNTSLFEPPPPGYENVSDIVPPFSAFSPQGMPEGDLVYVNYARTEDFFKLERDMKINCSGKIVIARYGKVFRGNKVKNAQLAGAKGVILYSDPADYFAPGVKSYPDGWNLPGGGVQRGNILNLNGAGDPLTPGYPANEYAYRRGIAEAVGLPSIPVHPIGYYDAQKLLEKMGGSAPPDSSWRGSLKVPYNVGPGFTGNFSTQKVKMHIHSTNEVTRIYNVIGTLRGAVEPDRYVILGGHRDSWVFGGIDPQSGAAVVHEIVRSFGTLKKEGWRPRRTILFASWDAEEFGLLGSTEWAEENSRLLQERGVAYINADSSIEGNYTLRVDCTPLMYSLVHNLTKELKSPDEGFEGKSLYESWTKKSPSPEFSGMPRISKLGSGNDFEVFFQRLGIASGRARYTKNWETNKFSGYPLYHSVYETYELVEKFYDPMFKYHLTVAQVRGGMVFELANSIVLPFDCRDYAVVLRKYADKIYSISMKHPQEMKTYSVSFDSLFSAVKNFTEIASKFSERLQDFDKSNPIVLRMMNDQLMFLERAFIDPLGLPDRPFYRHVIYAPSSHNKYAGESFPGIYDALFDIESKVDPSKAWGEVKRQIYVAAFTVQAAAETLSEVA

Ki | Structure (SMILES)
1870 nM | O=C(O)c1ccc(C(=O)O)c(S(=O)(=O)c2cc(C(=O)O)ccc2C(=O)O)c1 [2-[(2,5-dicarboxyphenyl)sulfonyl]-1,4-benzenedicarboxylic acid]
572 nM | O=C(O)c1ccc(C(=O)O)c(Sc2ccccc2C(=O)O)c1 [2-[(2-carboxyphenyl)thio]-1,4-benzenedicarboxylic acid]
2370 nM | O=C(O)c1ccc(S(=O)(=O)c2cc(C(=O)O)ccc2C(=O)O)cc1 [2-[(4-carboxyphenyl)sulfonyl]-1,4-benzenedicarboxylic acid]
9000 nM | O=C(O)Cc1cc(C(=O)O)ccc1C(=O)O [2-carboxymethyl-1,4-benzenedicarboxylic acid]

Same assay, conditions: IC50

IC50 | Structure (SMILES)
≥ 100000 nM | O=C(NO)c1ccccc1O [2,N-Dihydroxy-benzamide]

Same assay, conditions: read-out: IC50

Structure (SMILES) | IC50
O=C(O)c1ccc(CNC(=O)c2cc(C(=O)O)cc(C(=O)NO)c2)cc1 | 2780 nM
O=C(CSCc1ccc(OCc2ccc(C(=O)O)cc2)c(C(=O)O)c1)NO | 1330 nM
O=C(CSCCc1cccc(OCc2ccc(C(=O)O)cc2)c1C(=O)O)NO | 14000 nM
O=C(NO)c1ccc(C(=O)c2ccccc2C(=O)NO)cc1 | ≥ 100000 nM
O=C(O)C(CCCS)Cc1c(F)c(F)c(F)c(F)c1F (stereo not drawn) [2,3,4,5,6-pentafluoro-alpha-(3-mercaptopropyl)-benzenepropanoic acid] | 1000 nM
O=C(O)c1ccccc1OC(CCCS)C(=O)O (stereo not drawn) [2-(1-carboxy-4-mercaptobutoxy)-benzoic acid] | 4600 nM
O=C(O)c1ccc(-c2ccccc2)c(CC(CCCS)C(=O)O)c1 (stereo not drawn) [2-(2-carboxy-5-mercaptopentyl)-[1,1′-biphenyl]-4-carboxylic acid] | 19 nM
O=C(O)c1cc(OCc2ccccc2)ccc1CCS [2-(2-mercaptoethyl)-5-(phenylmethoxy)-benzoic acid] | 380 nM
O=C(O)c1c(CCS)cccc1OCCc1ccccc1 [2-(2-mercaptoethyl)-6-(2-phenylethoxy)-benzoic acid] | 266 nM
O=C(O)c1c(CCS)cccc1OCc1ccccc1 [2-(2-mercaptoethyl)-6-(phenylmethoxy)-benzoic acid] | 11.5 nM
O=C(O)c1c(CCS)cccc1Oc1ccccc1 [2-(2-mercaptoethyl)-6-phenoxy-benzoic acid] | 1150 nM
O=C(O)c1ccccc1CCS [2-(2-mercaptoethyl)-benzoic acid] | 613 nM
CC(C)(C)CCOc1cccc(CCS)c1C(=O)O [2-(3,3-dimethylbutoxy)-6-(2-mercaptoethyl)-benzoic acid] | 2580 nM
COc1cc(OC)cc(OC(CCCS)C(=O)O)c1 (stereo not drawn) [2-(3,5-dimethoxyphenoxy)-5-mercapto-pentanoic acid] | 16100 nM
O=C(O)CCC(CCCSCC(=O)NO)C(=O)O (stereo not drawn) [2-(3-Hydroxycarbamoyl-methylsulfanylpropyl)-pentanedioic acid] | 3000 nM
CC(=O)c1cccc(OC(CCCS)C(=O)O)c1 (stereo not drawn) [2-(3-acetylphenoxy)-5-mercapto-pentanoic acid] | 2900 nM

Structure (SMILES) | IC50
O=C(O)C(CCCS)Oc1cccc(O)c1 (stereo not drawn) [2-(3-hydroxyphenoxy)-5-mercapto-pentanoic acid] | 846 nM
CC(=O)c1ccc(OC(CCCS)C(=O)O)cc1 (stereo not drawn) [2-(4-acetylphenoxy)-5-mercaptopentanoic acid] | 29.8 nM
NC(=O)c1ccccc1CC(CCCS)C(=O)O (stereo not drawn) [2-(aminocarbonyl)-alpha-(3-mercaptopropyl)-benzenepropanoic acid] | 3950 nM
O=C(O)COc1cccc(CCS)c1C(=O)O [2-(carboxymethoxy)-6-(2-mercaptoethyl)-benzoic acid] | 215 nM
O=C(O)c1ccccc1CS [2-(mercaptomethyl)-benzoic acid] | ≥ 100000 nM
O=C(CSCCCC(Cc1cccc(-c2ccccc2)c1)C(=O)O)NO (stereo not drawn) [2-Biphenyl-3-ylmethyl-5-hydroxy-carbamoylmethylsulfanyl-pentanoic acid] | 4210 nM
COC(=O)c1ccccc1OCC(=O)NO [2-Hydroxycarbamoylmethoxy-benzoic acid methyl ester] | ≥ 100000 nM
O=C(COc1ccccc1C(=O)O)NO [2-Hydroxycarbamoylmethoxy-benzoic acid] | ≥ 100000 nM
CC(=O)Nc1cccc(OC(CCCS)C(=O)O)c1 (stereo not drawn) [2-[3-(acetylamino)phenoxy]-5-mercapto-pentanoic acid] | 27700 nM
O=C(O)c1ccc(COc2cccc(CCS)c2C(=O)O)c(Br)c1 [2-[(2-bromo-4-carboxyphenyl)methoxy]-6-(2-mercaptoethyl)-benzoic acid] | 2.65 nM
O=C(O)c1ccccc1COc1cccc(CCS)c1C(=O)O [2-[(2-carboxyphenyl)methoxy]-6-(2-mercaptoethyl)-benzoic acid] | 11.5 nM
O=C(O)c1ccc(Cl)c(OC(CCCS)C(=O)O)c1 (stereo not drawn) [3-(1-carboxy-4-mercaptobutoxy)-4-chloro-benzoic acid] | 118 nM
O=C(O)c1ccc(F)c(OC(CCCS)C(=O)O)c1 (stereo not drawn) [3-(1-carboxy-4-mercaptobutoxy)-4-fluoro-benzoic acid] | 400 nM
COc1ccc(C(=O)O)cc1OC(CCCS)C(=O)O (stereo not drawn) [3-(1-carboxy-4-mercaptobutoxy)-4-methoxy-benzoic acid] | 287 nM
O=C(O)Cc1cccc(OC(CCCS)C(=O)O)c1 (stereo not drawn) [3-(1-carboxy-4-mercaptobutoxy)-benzeneacetic acid] | 64 nM

Second part, the compound after the results:

IC50 | Structure (SMILES)
7 nM | O=C(O)c1cccc(CC(CCCS)C(=O)O)c1 (single isomer, unassigned; (+)) [(+)-3-carboxy-alpha-(3-mercaptopropyl)-benzenepropanoic acid]
33.3 nM | O=C(O)c1cccc(CC(CCCS)C(=O)O)c1 (single isomer, unassigned; (-)) [(−)-3-carboxy-alpha-(3-mercaptopropyl)-benzenepropanoic acid]
160 nM | O=C(O)c1c(CCS)cccc1OCc1ccccc1Cl [2-[(2-chlorophenyl)methoxy]-6-(2-mercaptoethyl)-benzoic acid]
0.098 nM | O=C(O)c1ccc(COc2cccc(CCS)c2C(=O)O)cc1Br [2-[(3-bromo-4-carboxyphenyl)methoxy]-6-(2-mercaptoethyl)-benzoic acid]
7 nM | COc1cc(C(=O)O)ccc1COc1cccc(CCS)c1C(=O)O [2-[(4-carboxy-2-methoxyphenyl)methoxy]-6-(2-mercaptoethyl)-benzoic acid]
10.5 nM | COc1cc(COc2cccc(CCS)c2C(=O)O)ccc1C(=O)O [2-[(4-carboxy-3-methoxyphenyl)methoxy]-6-(2-mercaptoethyl)-benzoic acid]
4 nM | O=C(O)c1ccc(COc2cccc(CCS)c2C(=O)O)cc1 [2-[(4-carboxyphenyl)methoxy]-6-(2-mercaptoethyl)-benzoic acid]
23.7 nM | CC(C)(C)c1cc(COc2cccc(CCS)c2C(=O)O)cc(C(=O)O)c1 [2-[[3-carboxy-5-(1,1-dimethylethyl)phenyl]methoxy]-6-(2-mercaptoethyl)-benzoic acid]
3.33 nM | O=C(O)c1ccc(Br)c(CC(CCCS)C(=O)O)c1 (stereo not drawn) [2-bromo-5-carboxy-alpha-(3-mercaptopropyl)-benzenepropanoic acid]
1700 nM | O=C(O)c1ccccc1CC(CCCS)C(=O)O (stereo not drawn) [2-carboxy-alpha-(3-mercaptopropyl)-benzenepropanoic acid]
1350 nM | O=C(O)C(CCCS)Cc1ccccc1Cl (stereo not drawn) [2-chloro-alpha-(3-mercaptopropyl)-benzenepropanoic acid]
450 nM | N#Cc1ccccc1CC(CCCS)C(=O)O (stereo not drawn) [2-cyano-alpha-(3-mercaptopropyl)-benzenepropanoic acid]
14900 nM | O=C(CCOc1cccc(-c2cccc(C(=O)O)c2)c1C(=O)O)NO [3-(2-1-Hydroxycarbamoyl-ethoxy)-biphenyl-2,3′-dicarboxylic acid]
255 nM | O=C(CSCCc1cccc(-c2cccc(C(=O)O)c2)c1C(=O)O)NO [3-(2-1-Hydroxycarbamoyl-methylsulfanyl-ethyl)-biphenyl-2,3′-dicarboxylic acid]
≥ 100000 nM | COC(=O)c1cccc(CC(C(=O)O)C(=O)NO)c1 (stereo not drawn) [3-(2-Carboxy-2-hydroxycarbamoyl-ethyl)-benzoic acid methyl ester]
4530 nM | O=C(O)c1cccc(CC(C(=O)O)C(=O)NO)c1 (stereo not drawn) [3-(2-Carboxy-2-hydroxycarbamoyl-ethyl)-benzoic acid]
44000 nM | O=C(O)c1cccc(CC(CNO)C(=O)O)c1 (stereo not drawn) [3-(2-Carboxy-3-hydroxyamino-propyl)-benzoic acid]
693 nM | O=C(CC(Cc1cccc(C(=O)O)c1)C(=O)O)NO (stereo not drawn) [3-(2-Carboxy-3-hydroxycarbamoyl-propyl)-benzoic acid]
3070 nM | O=C(CSCC(Cc1cccc(C(=O)O)c1)C(=O)O)NO (stereo not drawn) [3-(2-Carboxy-3-hydroxycarbamoylmethyl-sulfanylpropyl)-benzoic acid]
47.8 nM | O=C(CCC(Cc1cccc(C(=O)O)c1)C(=O)O)NO (stereo not drawn) [3-(2-Carboxy-4-hydroxycarbamoyl-butyl)-benzoic acid]
4900 nM | O=C(CSCCC(Cc1cccc(C(=O)O)c1)C(=O)O)NO (stereo not drawn) [3-(2-Carboxy-4-hydroxycarbamoylmethyl-sulfanylbutyl)-benzoic acid]
66.3 nM | O=C(CCCC(Cc1cccc(C(=O)O)c1)C(=O)O)NO (stereo not drawn) [3-(2-Carboxy-5-hydroxycarbamoyl-pentyl)-benzoic acid]
394 nM | O=C(CSCCCC(Cc1cccc(C(=O)O)c1)C(=O)O)NO (stereo not drawn) [3-(2-Carboxy-5-hydroxycarbamoylmethyl-sulfanyl-pentyl)-benzoic acid]
16000 nM | O=C(CSCCCC(Cc1cc(C(=O)O)ccc1Cl)C(=O)O)NO (stereo not drawn) [3-(2-Carboxy-5-hydroxycarbamoylmethyl-sulfanylpentyl)-4-chloro-benzoic acid]
3250 nM | O=C(CSCCCC(Cc1cc(Oc2ccccc2)cc(C(=O)O)c1)C(=O)O)NO (stereo not drawn) [3-(2-Carboxy-5-hydroxycarbamoylmethyl-sulfanylpentyl)-5-phenoxy-benzoic acid]
384 nM | O=C(CSCCCC(Cc1cccc(C(=O)O)c1)C(=O)O)NO (stereo not drawn) [3-(2-Carboxy-5-hydroxycarbamoylmethyl-sulfanylpentyl)-benzoic acid]
3330 nM | O=C(CSCCCCC(Cc1cccc(C(=O)O)c1)C(=O)O)NO (stereo not drawn) [3-(2-Carboxy-6-hydroxycarbamoylmethyl-sulfanylhexyl)-benzoic acid]
